Experimental data from article PMC8041284, “Tunable Methacrylamides for Covalent Ligand Directed Release Chemistry” (Journal of the American Chemical Society, 2021).

biological target: BTK (Homo sapiens, UniProt Q06187); details: 0.75 uM BTK, […] probe 3l, 15 min preincubation, 10 µM, inhibitor, BTK inhibition (%)
Sequence (Q06187 402-655 limits assumed): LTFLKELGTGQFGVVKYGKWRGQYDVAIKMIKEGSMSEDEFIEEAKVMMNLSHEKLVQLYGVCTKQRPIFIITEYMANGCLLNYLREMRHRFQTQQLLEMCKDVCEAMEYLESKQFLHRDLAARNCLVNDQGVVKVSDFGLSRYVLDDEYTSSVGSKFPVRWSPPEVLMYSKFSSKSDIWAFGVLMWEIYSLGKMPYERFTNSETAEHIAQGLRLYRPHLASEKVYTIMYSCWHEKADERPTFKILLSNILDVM

Compound	BTK inhibition (%)
CCCC(CCC)C(=O)O [PCM-0215159]	6.9
CO/N=C(\C(=O)N[C@@H]1C(=O)N2C(C(=O)O)=C(CSC(=O)c3ccco3)CS[C@H]12)c1csc(N)n1 [PCM-0216235]	0.8
O=C1O[C@H]([C@@H](O)CO)C(O)=C1O [PCM-0215215]	-6.8
COc1cc(NS(=O)(=O)c2ccc(N)cc2)nc(OC)n1 [PCM-0086362]	-7.8
CC[C@H]1OC(=O)[C@H](C)[C@@H](O[C@H]2C[C@@](C)(OC)[C@@H](O)[C@H](C)O2)[C@H](C)[C@@H](O[C@@H]2O[C@H](C)C[C@H](N(C)C)[C@H]2O)[C@](C)(O)C[C@@H](C)CN(C)[C@H](C)[C@@H](O)[C@]1(C)O [PCM-0216649]	11.7
Cc1cc(NS(=O)(=O)c2ccc(N)cc2)no1 [PCM-0215124]	7
C[C@@H]1O[C@@H]1P(=O)(O)O [PCM-0216062]	-39.1
Nc1nc2[nH]cc(CCc3ccc(C(=O)N[C@@H](CCC(=O)O)C(=O)O)cc3)c2c(=O)[nH]1 [PCM-0090283]	2.6
Cc1cc(NS(=O)(=O)c2ccc(N)cc2)no1 [PCM-0085795]	-3.1
C[C@H](CCC(=O)NCCS(=O)(=O)O)[C@H]1CC[C@H]2[C@@H]3[C@@H](O)C[C@@H]4C[C@H](O)CC[C@]4(C)[C@H]3CC[C@]12C [PCM-0214942]	4.7
Nc1ccc(S(=O)(=O)Nc2ncccn2)cc1 [PCM-0214831]	10.9
N[C@@H](C=O)[C@@H](O)[C@H](O)[C@H](O)CO [PCM-0215073]	-2.8
CCC(=O)NS(=O)(=O)c1ccc(-c2c(-c3ccccc3)noc2C)cc1 [PCM-0214825]	5.5
Cc1c(O)c(=O)ccn1C [PCM-0085974]	-30.4
C/C=C(/C)C(=O)O[C@H]1[C@@H](OC(C)=O)c2c(ccc3ccc(=O)oc23)OC1(C)C [PCM-0216546]	-14.7
CC[C@H]1OC(=O)[C@H](C)[C@@H](O[C@H]2C[C@@](C)(OC)[C@@H](O)[C@H](C)O2)[C@H](C)[C@@H](O[C@@H]2O[C@H](C)C[C@H](N(C)C)[C@H]2O)[C@](C)(O)C[C@@H](C)CN(C)[C@H](C)[C@@H](O)[C@]1(C)O [PCM-0214754]	1.6
CC(C(=O)O)c1cccc(Oc2ccccc2)c1 (stereo not drawn) [PCM-0086452]	-45.1
C=C[C@]1(C)C[C@@H](OC(=O)CSCCN(CC)CC)[C@]2(C)[C@H](C)CC[C@]3(CCC(=O)[C@H]32)[C@@H](C)[C@@H]1O [PCM-0216045]	0
CC(=O)Oc1ccccc1C(=O)O [PCM-0214911]	1.6
Cc1ccccc1C(=O)Nc1ccc(C(=O)N2CCCC(N(C)C)c3ccccc32)cc1 (stereo not drawn) [PCM-0095419]	-13.6
COc1ccc2[nH]c([S@@+]([O-])Cc3ncc(C)c(OC)c3C)nc2c1 [PCM-0214815]	-10.9
CC1(C)[C@@H](O[C@H]2O[C@H](C(=O)O)[C@@H](O)[C@H](O)[C@H]2O[C@@H]2O[C@H](C(=O)O)[C@@H](O)[C@H](O)[C@H]2O)CC[C@]2(C)[C@H]3C(=O)C=C4[C@@H]5C[C@@](C)(C(=O)O)CC[C@]5(C)CC[C@@]4(C)[C@]3(C)CC[C@@H]12 [PCM-0214876]	35.9
C=C[C@]1(C)C[C@@H](OC(=O)CSCCN(CC)CC)[C@]2(C)[C@H](C)CC[C@]3(CCC(=O)[C@H]32)[C@@H](C)[C@@H]1O [PCM-0215106]	-8.5
O=C1O[C@H]([C@@H](O)CO)C(O)=C1O [PCM-0085940]	5.4
COc1ccc(C[C@@H](C)NC[C@H](O)c2ccc(O)c(NC=O)c2)cc1 [PCM-0216637]	6.9
C[C@@H]1O[C@@H]1P(=O)(O)O [PCM-0215255]	-21
C/C=C(/C)C(=O)O[C@H]1[C@@H](OC(C)=O)c2c(ccc3ccc(=O)oc23)OC1(C)C [PCM-0216298]	10
CO/N=C(\C(=O)N[C@@H]1C(=O)N2C(C(=O)O)=C(CSC(=O)c3ccco3)CS[C@H]12)c1csc(N)n1 [PCM-0214692]	0

same assay, conditions: 0.75 uM BTK, […] probe 3l, 15 min preincubation; 10 µM; inhibitor

Compound	BTK inhibition (%)
C[C@H]1CC[C@]2(NC1)O[C@H]1C[C@H]3[C@@H]4CC[C@H]5C[C@@H](O)CC[C@]5(C)[C@H]4CC[C@]3(C)[C@H]1[C@@H]2C [PCM-0216325]	13.9
CC1=C[C@]23C(=O)[C@@H](C=C(CO)[C@@H](O)[C@]2(O)[C@H]1O)[C@H]1[C@@H](C[C@H]3C)C1(C)C [PCM-0216393]	-3.1
CN1CCN(C(=O)C2C3CCC(O3)C2C(=O)O)CC1 (stereo not drawn) [PCM-0215448]	-11.1
CC(=O)O[C@H]1C[C@@H]2CC[C@@H]3[C@H](CC[C@@]4(C)[C@H]3C[C@H]([N+]3(C)CCCCC3)[C@@H]4OC(C)=O)[C@@]2(C)C[C@@H]1[N+]1(C)CCCCC1 [PCM-0214687]	-21
Cn1c(CCCC(=O)O)nc2cc(N(CCCl)CCCl)ccc21 [PCM-0065281]	-3.9
Cc1cc(C(C#N)c2ccc(Cl)cc2)c(Cl)cc1NC(=O)c1cc(I)cc(I)c1O (stereo not drawn) [PCM-0086145]	20.2
O=C(OC1C[C@H]2CC[C@@H](C1)[N+]21CCCC1)C(O)(c1ccccc1)c1ccccc1 (stereo partly drawn) [PCM-0095326]	7
COC(=O)C1=C(C)NC(C)=C(C(=O)OCCN2CCN(C(c3ccccc3)c3ccccc3)CC2)C1c1cccc([N+](=O)[O-])c1 (stereo not drawn) [PCM-0090281]	34.2
O=C(O[C@H]1CN2CCC1CC2)N1CCc2ccccc2[C@@H]1c1ccccc1 [PCM-0095538]	-27.2
CC(C)[C@]12O[C@H]1[C@@H]1O[C@]13[C@]1(O[C@H]1C[C@H]1C4=C(CC[C@@]13C)C(=O)OC4)[C@@H]2O [PCM-0214731]	6.2
C[C@@H]1CC[C@@]2(OC1)O[C@H]1C[C@H]3[C@@H]4CC=C5C[C@@H](O[C@@H]6O[C@H](CO)[C@@H](O[C@@H]7O[C@@H](C)[C@H](O)[C@@H](O)[C@H]7O)[C@H](O)[C@H]6O[C@@H]6O[C@@H](C)[C@H](O)[C@@H](O)[C@H]6O)CC[C@]5(C)[C@H]4CC[C@]3(C)[C@H]1[C@@H]2C [PCM-0214660]	38.1
COC(=O)Nc1nc2ccccc2[nH]1 [PCM-0214885]	-9.3
CC(C)OC(=O)[C@H](C)N[P@](=O)(CO[C@H](C)Cn1cnc2c(N)ncnc21)Oc1ccccc1 [PCM-0215482]	-3.1
CCN(Cc1ccc(Cl)nc1)/C(=C/[N+](=O)[O-])NC [PCM-0214807]	7
CO[C@H]1/C=C/O[C@@]2(C)Oc3c(C)c(O)c4c(O)c(c(/C=N/N5CCN(C)CC5)c(O)c4c3C2=O)NC(=O)/C(C)=C\C=C\[C@H](C)[C@H](O)[C@@H](C)[C@@H](O)[C@@H](C)[C@H](OC(C)=O)[C@@H]1C [PCM-0086069]	32.7
COc1ccc(C=O)cc1 [PCM-0216000]	17
O=C(/C=C/c1ccccc1)OC[C@H]1O[C@@H](O[C@@H]2OC=C[C@H]3[C@H](O)[C@@H]4O[C@]4(CO)[C@@H]23)[C@H](O)[C@@H](O)[C@@H]1O [PCM-0214975]	-1.6
Cc1cc2c(C(C)C)c(O)c(O)c(C=O)c2c(O)c1-c1c(C)cc2c(C(C)C)c(O)c(O)c(C=O)c2c1O [PCM-0064881]	75.5
C=C[C@@H]1C2=CCOC(=O)C2=CO[C@H]1O[C@@H]1O[C@H](CO)[C@@H](O)[C@H](O)[C@H]1O [PCM-0214971]	-0.8
C[C@@H]1O[C@@H](O[C@H]2C[C@@H](O)[C@]3(CO)[C@H]4[C@H](O)C[C@]5(C)[C@@H](C6=CC(=O)OC6)CC[C@]5(O)[C@@H]4CC[C@]3(O)C2)[C@H](O)[C@H](O)[C@H]1O [PCM-0214805]	-5.4
CN[C@H]1C[C@@H](N)[C@H](O)[C@@H](O[C@@H]2O[C@H](CO)[C@H](O)[C@@H]3OC4(O[C@H]23)O[C@H]([C@@H](N)CO)[C@H](O)[C@H](O)[C@H]4O)[C@@H]1O (stereo partly drawn) [PCM-0095389]	0
O=c1ccc2cc3ccoc3c(O)c2o1 [PCM-0216446]	-6.2
ClC(Cl)=C(c1ccc(Cl)cc1)c1ccc(Cl)cc1 [PCM-0216164]	10.8
CC(C)c1ccc(C=O)cc1 [PCM-0216001]	-18.5
CC(=O)N1C[C@H](O)C[C@H]1C(=O)O [PCM-0215090]	8.6
C=C(C)[C@H]1Cc2c(ccc3c2O[C@@H]2COc4cc(OC)c(OC)cc4[C@@H]2C3=O)O1 [PCM-0214933]	6.2
CCN(C)C(=O)Oc1cccc([C@H](C)N(C)C)c1 [PCM-0086345]	1.6

same assay, conditions: 10 µM; inhibitor

Compound	BTK inhibition (%)
CC(C)C1=CC(=O)[C@@](C)([C@H]2[C@H](O)C[C@@]3(C)[C@@H]4CC=C5[C@@H](CC[C@@H](O[C@@H]6OC[C@@H](O)[C@H](O)[C@H]6O[C@@H]6O[C@@H](C)[C@H](O)[C@@H](O)[C@H]6O)C5(C)C)[C@]4(C)C(=O)C[C@]23C)O1 [PCM-0216419]	2.3
C/C=C\c1cc(OC)c(OC)cc1OC [PCM-0216406]	-3.9
CC1=C2C(=O)[C@H]3[C@@H](CC=C4C[C@@H](O)CC[C@@]43C)[C@@H]2CC[C@]12O[C@@H]1C[C@H](C)CN[C@H]1[C@H]2C [PCM-0214856]	-12.5
COC(=O)C1=CCCN(C)C1 [PCM-0003961]	-10.1
CN1CCc2cc3c(cc2[C@H]1[C@@H]1OC(=O)c2c1ccc1c2OCO1)OCO3 [PCM-0095582]	-0.8
C[C@H]1CC[C@@H]2N(C1)C[C@H]1[C@@H]3C[C@H]4[C@@H](C[C@H](O)[C@H]5C[C@@H](O)CC[C@@]54C)[C@@H]3CC[C@@H]1[C@]2(C)O [PCM-0216522]	-15.4
CN[C@H]1[C@H](O)[C@H](O[C@@H]2[C@@H](O)[C@H](O[C@H]3O[C@H](C(C)O)[C@@H](O)[C@H](O)[C@H]3N)[C@@H](N)C[C@H]2N)OC[C@@]1(C)O (stereo partly drawn) [PCM-0215175]	6
CN1C(=O)[C@@]23C[C@]4([C@]56C[C@@]78SS[C@@](CO)(C(=O)N7[C@H]5Nc5ccccc56)N(C)C8=O)c5ccccc5N[C@@H]4N2C(=O)[C@]1(CO)SS3 [PCM-0215602]	5.4
